Patent US8604042B2, “Bi-aryl meta-pyrimidine inhibitors of kinases” (TargeGen, Inc., priority 2005, dated 2013)
Where a name gives a salt, the structure may show the parent alone.

Target: T1, recombinant JAK2 (Homo sapiens, UniProt O60674)
T1 construct: purchased Upstate Cell Signaling Solutions
Experiment: IC50 value determinations for Jak2 kinase, luminescence-based kinase assay (Kinase-Glo)
Assay type: biochemical

T1 sequence (O60674 808-1132 limits assumed): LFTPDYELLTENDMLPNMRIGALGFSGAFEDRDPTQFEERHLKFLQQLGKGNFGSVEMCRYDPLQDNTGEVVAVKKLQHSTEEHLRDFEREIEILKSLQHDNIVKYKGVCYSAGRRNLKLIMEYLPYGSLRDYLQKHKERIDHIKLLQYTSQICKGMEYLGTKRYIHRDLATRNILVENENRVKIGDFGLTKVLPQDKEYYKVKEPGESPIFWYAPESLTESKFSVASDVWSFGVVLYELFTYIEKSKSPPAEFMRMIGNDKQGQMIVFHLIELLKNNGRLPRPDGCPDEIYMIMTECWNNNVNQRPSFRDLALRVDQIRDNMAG

Structure (SMILES) | IC50 (Table 1) [nM] | other results
COc1cc(Nc2nc(Nc3ccc(OCCO)cc3)ncc2C)ccc1Cl [2-{4-[4-(4-Chloro-3-methoxy-phenylamino)-5-methyl-pyrimidin-2-ylamino]-phenoxy}-ethanol] | 9.14 | 
Cc1cnc(Nc2ccc(-n3cccn3)cc2)nc1Nc1cccc(C(C)(C)C)c1 [N2-(4-(1H-pyrazol-1-yl)phenyl)-N4-(3-tert-butylphenyl)-5-methylpyrimidine-2,4-diamine] | 151 | 
Cc1cnc(Nc2ccc(OCCN3CCCC3)cc2)nc1Nc1ccc(Cl)c(F)c1 [N4-(4-Chloro-3-fluoro-phenyl)-5-methyl-N2-[4-(2-pyrrolidin-1-yl-ethoxy)-phenyl]-pyrimidine-2,4-diamine] | 40.1 | 
c1ccc(Cc2ccnc(Nc3ccc(OCCN4CCCC4)cc3)n2)cc1 [N-(4-(2-(pyrrolidin-1-yl)ethoxy)phenyl)-4-benzylpyrimidin-2-amine] | 702 | 
COc1cc(Nc2nc(Nc3cccc(N4CCNCC4)c3)ncc2C)ccc1Cl [N4-(4-Chloro-3-methoxy-phenyl)-5-methyl-N2-(3-piperazin-1-yl-phenyl)-pyrimidine-2,4-diamine] | 9.52 | 
O=S(=O)(NCCN1CCCC1)c1ccc(Nc2nccc(Nc3ccc(O)cc3)n2)cc1 [4-[4-(4-Hydroxy-phenylamino)-pyrimidin-2-ylamino]-N-(2-pyrrolidin-1-yl-ethyl)-benzenesulfonamide] | 9740 | 
Cc1cnc(Nc2ccc(OCCN3CCCC3)cc2)nc1Nc1ccc(Cl)cc1 [N4-(4-Chloro-phenyl)-5-methyl-N2-[4-(2-pyrrolidin-1-yl-ethoxy)-phenyl]-pyrimidine-2,4-diamine trifluoroacetate] | 18.2 | 
Cc1cnc(Nc2ccc(OC3CCNCC3)cc2)nc1Nc1cccc(O)c1 [3-(2-(4-(piperidin-4-yloxy)phenylamino)-5-methylpyrimidin-4-ylamino)phenol] | 51.9 | 
Cc1cnc(Nc2cccc(S(=O)(=O)NC(C)(C)C)c2)nc1Nc1cccc(S(=O)(=O)NC(C)(C)C)c1 [Compound 58] |  | IC50 (Table 9, SAR of the P2/P1 region): 707 nM
COc1cc(Nc2nc(Nc3ccc(OCCN4CCCC4)cc3)ncc2C)ccc1Cl [Compound 6] |  | IC50 (Table 6): 8 nM; IC50 (Table 7, SAR for the P3 region): 8 nM
Cc1cnc(Nc2ccc(OCCN3CCCC3)cc2)nc1Nc1ccc2c(c1)OCO2 [N4-Benzo[1,3]dioxol-5-yl-5-methyl-N2-[4-(2-pyrrolidin-1-yl-ethoxy)-phenyl]-pyrimidine-2,4-diamine trifluoroacetate] | 87.2 | 
Cc1cnc(Nc2ccc(OC3CCNCC3)cc2)nc1Nc1cccc(C(F)(F)F)c1C [5-Methyl-N4-(2-methyl-3-trifluoromethyl-phenyl)-N2-[4-(piperidin-4-yloxy)-phenyl]-pyrimidine-2,4-diamine] | 52.9 | 
COc1cc(Nc2nc(Nc3ccc(Cn4cccn4)cc3)ncc2C)ccc1Cl [N4-(4-Chloro-3-methoxy-phenyl)-5-methyl-N2-(4-pyrazol-1-ylmethyl-phenyl)-pyrimidine-2,4-diamine] | 18.9 | 
COc1cc(Nc2nc(Nc3ccc(S(=O)(=O)C4CCNCC4)cc3)ncc2C)ccc1Cl [N4-(4-Chloro-3-methoxy-phenyl)-5-methyl-N2-[4-(piperidine-4-sulfonyl)-phenyl]-pyrimidine-2,4-diamine] | 13 | 
Cc1cnc(Nc2ccc(OC3CCNCC3)cc2)nc1Nc1cccc(S(=O)(=O)NC(C)(C)C)c1 [N-tert-Butyl-3-(5-methyl-2-[4-(piperidin-4-yloxy)-phenylamino]-pyrimidin-4-ylamino}-benzenesulfonamide] | 7.3 | 
Cc1cnc(Nc2ccc(OCCN3CCCC3)cc2)nc1Nc1ccccc1 [5-Methyl-N4-phenyl-N2-[4-(2-pyrrolidin-1-yl-ethoxy)-phenyl]-pyrimidine-2,4-diamine] | 16.7 | 
Cc1cnc(Nc2cccc(CN3CCOCC3)c2)nc1Nc1cccc(S(=O)(=O)NC(C)(C)C)c1 [N-tert-Butyl-3-(5-methyl-2-(3-morpholin-4-ylmethyl-phenylamino)-pyrimidin-4-ylamino]-benzenesulfonamide] | 7.06 | 
COc1cc(Nc2nc(Nc3cccc(OCCN4CCCC4)c3)ncc2C#N)c(Cl)cc1Cl [Compound 2] |  | IC50 (Table 5, Initial Screening Hits for JAK2): 10500 nM; IC50 (Table 7, SAR for the P3 region): 10500 nM
Cc1cnc(Nc2ccc(C[N+]3([O-])CCOCC3)cc2)nc1Nc1cccc(S(=O)(=O)NC(C)(C)C)c1 [N-tert-Butyl-3-{5-methyl-2-[4-(4-oxy-morpholin-4-ylmethyl)-phenylamino]-pyrimidin-4-ylamino}-benzenesulfonamide] | 48.6 | 
Cc1cnc(Nc2ccc(OCCN3CCCC3)cc2)nc1Nc1csc2ccccc12 [N4-Benzo[b]thiophen-3-yl-5-methyl-N2-[4-(2-pyrrolidin-1-yl-ethoxy)-phenyl]-pyrimidine-2,4-diamine] | 12.4 | 
Cc1cnc(Nc2ccc(Cn3cccn3)cc2)nc1Nc1cccc(S(=O)(=O)NC(C)(C)C)c1 [N-tert-Butyl-3-[5-methyl-2-(4-pyrazol-1-ylmethyl-phenylamino)-pyrimidin-4-ylamino]-benzenesulfonamide] | 18.6 | 

More lines, main results first:

IC50 (Table 1) [nM] | Structure (SMILES) | other results
19 | Cc1cnc(Nc2ccc(-n3cccn3)cc2)nc1Nc1cccc(S(=O)(=O)NC(C)(C)C)c1 [N-tert-Butyl-3-[5-methyl-2-(4-pyrazol-1-yl-phenylamino)-pyrimidin-4-ylamino]-benzenesulfonamide] | 
11.8 | Cc1cnc(Nc2ccc(N3CCN(C)CC3)cc2)nc1Nc1cccc(S(=O)(=O)NC(C)C)c1 [N-Isopropyl-3-{5-methyl-2-[4-(4-methyl-piperazin-1-yl)-phenylamino]-pyrimidin-4-ylamino}-benzenesulfonamide] | 
60.3 | CCN(CC)S(=O)(=O)c1cccc(Nc2nc(Nc3ccc(N4CCN(C)CC4)cc3)ncc2C)c1 [N,N-Diethyl-3-{5-methyl-2-(4-(4-methyl-piperazin-1-yl)-phenylamino]-pyrimidin-4-ylamino}-benzenesulfonamide] | 
33.5 | Cc1cnc(Nc2ccc(C(=O)N3CCCC3)cc2)nc1Nc1cccc(S(=O)(=O)NC(C)(C)C)c1 [N-tert-Butyl-3-{5-methyl-2-[4-(pyrrolidine-1-carbonyl)-phenylamino]-pyrimidin-4-ylamino}-benzenesulfonamide] | 
5.5 | COc1cc(Nc2nc(Nc3ccc(N4CCN(C)CC4)cc3)ncc2C)ccc1Cl [N4-(4-Chloro-3-methoxy-phenyl)-5-methyl-N2-[4-(4-methyl-piperazin-1-yl)-phenyl]-pyrimidine-2,4-diamine] | 
8 | CCCS(=O)(=O)c1cccc(Nc2nc(Nc3ccc(N4CCN(C)CC4)cc3)ncc2C)c1 [5-methyl-N2-(4-(4-methylpiperazin-1-yl)phenyl)-N4-(3-(propylsulfonyl)phenyl) pyrimidine-2,4-diamine] | 
12 | COc1cc(Nc2nc(Nc3ccc(CN4CCN(C)CC4)cc3)ncc2C)ccc1Cl [N4-(4-Chloro-3-methoxy-phenyl)-5-methyl-N2-[4-(4-methyl-piperazin-1-ylmethyl)-phenyl]-pyrimidine-2,4-diamine] | 
24.8 | Cc1cnc(Nc2ccc(N3CCN(C)CC3)cc2)nc1Nc1cccc(S(=O)(=O)N2CCCCC2)c1 [5-Methyl-N2-[4-(4-methyl-piperazin-1-yl)-phenyl]-N4-[3-(piperidine-1-sulfony)-phenyl]-pyrimidine-2,4-diamine Hydrochloride] | 
33.8 | Cc1cnc(Nc2ccc(N3CCN(C)CC3)cc2)nc1Nc1cccc(-n2cccc2)c1 [N4-(3-(1H-pyrrol-1-yl)phenyl)-5-methyl-N2-(4-(4-methylpiperazin-1-yl)phenyl)pyrimidine-2,4-diamine] | 
9.5 | Cc1cnc(Nc2ccc(N3CCN(C)CC3)cc2)nc1Nc1cccc(S(=O)(=O)N(C)C)c1 [N,N-Dimethyl-3-{5-methyl-2-[4-(4-methyl-piperazin-1-yl)-phenylamino]-pyrimidin-4-ylamino}-benzenesulfonamide] | 
20.7 | Cc1cnc(Nc2ccc(N3CCN(C)CC3)cc2)nc1Nc1cccc(S(=O)(=O)N2CCOCC2)c1 [5-Methyl-N2-[4-(4-methyl-piperazin-1-yl)-phenyl]-N4-[3-(morpholine-4-sulfonyl)-phenyl]-pyrimidine-2,4-diamine] | 
18.6 | CC(=O)N1CCN(c2ccc(Nc3ncc(C)c(Nc4cccc(S(=O)(=O)NC(C)(C)C)c4)n3)cc2)CC1 [3-{2-[4-(4-Acetyl-piperazin-1-yl)-phenylamino]-5-methyl-pyrimidin-4-ylamino}-N-tert-butyl-benzenesulfonamide] | 
650 | Cc1cnc(Nc2cccc(S(=O)(=O)N3CCN(C)CC3)c2)nc1Nc1cccc(S(=O)(=O)NC(C)(C)C)c1 [N-tert-butyl-3-{[5-methyl-2-({3-[(4-methylpiperazin-1-yl)sulfonyl]phenyl}amino)pyrimidin-4-yl]amino}benzenesulfonamide] | 
160 | Cc1ccc(Nc2nc(Nc3ccc(N4CCN(C)CC4)cc3)ncc2C)cc1S(C)(=O)=O [N4-(3-Methanesulfonyl-4-methyl-phenyl)-5-methyl-N2-[4-(4-methyl-piperazin-1-yl)-phenyl]-pyrimidine-2,4-diamine] | 
29.7 | Cc1cnc(Nc2ccc(C(C)N3CCOCC3)cc2)nc1Nc1cccc(S(=O)(=O)NC(C)(C)C)c1 (centres unmarked) [N-tert-Butyl-3-{5-methyl-2-[4-(1-morpholin-4-yl-ethyl)-phenylamino]-pyrimidin-4-ylamino}-benzenesulfonamide] | 
12.1 | Cc1cnc(Nc2ccc(N3CCOCC3)cc2)nc1Nc1cccc(S(=O)(=O)NC(C)(C)C)c1 [N-tert-Butyl-3-[5-methyl-2-(4-morpholin-4-yl-phenylamino)-pyrimidin-4-ylamino]-benzenesulfonamide] | 
12.5 | Cc1cnc(Nc2ccc(CN3CCOCC3)cc2)nc1Nc1cccc(S(=O)(=O)NC(C)(C)C)c1 [N-tert-Butyl-3-[5-methyl-2-(4-morpholin-4-ylmethyl-phenylamino)-pyrimidin-4-ylamino]-benzenesulfonamide] | 
33.5 | Cc1cnc(Nc2ccc(N3CCN(C)CC3)cc2)nc1Nc1cccc(S(=O)(=O)N2CCCCC2C)c1 (centres unmarked) [5-Methyl-N2-[4-(4-methyl-piperazin-1-yl)-phenyl]-N4-[3-(2-methyl-piperidine-1-sulfony)-phenyl]-pyrimidine-2,4-diamine Hydrochloride] | 
